Source: patent publication US20180086810A1, “T CELL RECEPTOR FUSIONS AND CONJUGATES AND METHODS OF USE THEREOF” (ALTOR BIOSCIENCE CORPORATION, priority 2000, published 2018)

What was measured:
[1] = biological target: T1, 149 peptide/HLA-A2 complexes on the surface of the human B lymphoid cell line T2 (Homo sapiens, UniProt P04439+P04637, D140Y/D185E/D98H/E176V/E277Q/G131W/G231S/I119V/I121R/I166T/I218V/L300P/L318F/N151K/N90K/P208A/P217A/Q86G/Q94H/R138H/R169H/T345S); assay: Flow cytometry / immunofluorescence staining of peptide-pulsed T2 cells with fusion protein (149 peptide); format: binding; settings: 0.5 μg (10 μg/ml) fusion protein; T2 cells pulsed with 149 peptide
T1 construct: on the surface of the human B lymphoid cell line T2; endogenous in cells; host or cells: T2 cells pulsed with 149 peptide
Method: (§1) Flow cytometry and immunofluoresence staining were used to show direct binding of the fusion protein via its TCR to peptide/HLA-A2 complexes on the surface of the human B lymphoid cell line T2 (FIG. 4) • A) Staining of 149 or 264 peptide pulsed T2 cells with 0.5 μg (10 μg/ml) of 264 scTCR-IL-2 fusion protein. […] To evaluate A2 loading of each peptide, the cells were stained with the HLA-A2 specific mAb BB7.2 […] after overnight incubation of the cells with peptide.

[2] = biological target: 264 peptide/HLA-A2 complexes on the surface of the human B lymphoid cell line T2 (Homo sapiens, UniProt P04439+P04637, D140Y/D185E/D98H/E176V/E277Q/G131W/G231S/I119V/I121R/I166T/I218V/L300P/L318F/N151K/N90K/P208A/P217A/Q86G/Q94H/R138H/R169H/T345S); assay: Flow cytometry / immunofluorescence staining of peptide-pulsed T2 cells with fusion protein (264 peptide); format: binding; settings: 0.5 μg (10 μg/ml) fusion protein; T2 cells pulsed with 264 peptide
Method: as §1

[3] = test system: CTLL-2 cells and 149 peptide pulsed T2 cells; assay: Cell-cell conjugation assay, CTLL-2 cells with 149 peptide pulsed T2 cells, flow cytometer; format: cell-based, murine CTLL-2, human T2; settings: fusion protein; HE-labeled CTLL-2 and calcein-AM labeled T2 pulsed with 50 μg 149 peptide; 20 minutes at RT
Method: (§2) In this experiment, T2 cells pulsed with either the 149 or 264 peptide. CTLL-2 cells were hydrodiethidium (HE) labeled and incubated for 20 minutes at RT with an equal number of calcein-AM labeled T2 cells pulsed with either 50 μg of 149 or 264 peptide. […] In contrast, conjugate formation was not observed with the mixture that included the 149 peptide pulsed T2 cells (B; 0.88%). Cell samples were washed one time before analysis on the flow cytometer.

[4] = test system: CTLL-2 cells and 264 peptide-loaded T2 cells; assay: Cell-cell conjugation assay, CTLL-2 cells with 264 peptide-loaded T2 cells, flow cytometer; format: cell-based, murine CTLL-2, human T2
Method: as §2

HLA-A2 = biological target: T2, HLA-A2 (Homo sapiens, UniProt P04439, D140Y/D185E/D98H/E176V/E277Q/G131W/G231S/I119V/I121R/I166T/I218V/L300P/L318F/N151K/N90K/P208A/P217A/Q86G/Q94H/R138H/R169H/T345S); assay: HLA-A2 loading of peptide on T2 cells, staining with HLA-A2 specific mAb BB7.2; format: cell-based; settings: T2 cells pulsed with 50 μg peptide overnight; BB7.2 staining
T2 construct: HLA-A2 surface expression on T2 cells; endogenous in cells; host or cells: T2 cells
Method: as §1

| Substance | binding of fusion protein to T2 cells displaying the 149 peptide [1] | binding of fusion protein to T2 cells displaying the 264 peptide [2] | conjugation between cells (conjugate formation) [3] [%] | conjugation between cells (conjugate formation) ([4]; 1 Ag of fusion protein, HE-labeled CTLL-2 and calcein-AM labeled T2 pulsed with 50 μg 264 peptide, 20 minutes at RT) [%] | conjugation between a T cell and an antigen presenting cell pulsed with the correct peptide ([4]; restatement of example 11) | HLA-A2 binding of peptide (HLA-A2 surface expression on pulsed T2 cells) (HLA-A2) |
| --- | --- | --- | --- | --- | --- | --- |
| 264 scTCR-IL-2 fusion protein: soluble 264 single-chain TCR covalently linked to human IL-2 with EE peptide tag | not | binds specifically | 0.88 | 3.25 | able to mediate conjugation | – |
| LLGRNSFEV [264 peptide] | – | – | – | – | – | efficient HLA-A2 binding |
